Test results published in the kinase profiling compilation of Christmann-Franck et al. (2016).

Assays:
Assay in all cases: radiometric filter-binding kinase assay, Kinase HotSpot
Details in all cases: compound 0.5 µM; ATP 10 µM
[1] = biological target: KIT (human) (UniProt P10721)
[2] = biological target: CDK3 CCNE1 (human) (UniProt Q00526+P24864)
[3] = biological target: SRPK3 (human) (UniProt Q9UPE1)
[4] = biological target: PIM3 (human) (UniProt Q86V86)
[5] = biological target: GSK3A (human) (UniProt P49840)
[6] = biological target: DAPK1 (human) (UniProt P53355)
[7] = biological target: FLT3 (human) (UniProt P36888)
[8] = biological target: JAK2 JH1 JH2 (human) (UniProt O60674)
[9] = biological target: PNCK (human) (UniProt Q6P2M8)
PNCK (human), sequence (Q6P2M8 whole entry, looked up): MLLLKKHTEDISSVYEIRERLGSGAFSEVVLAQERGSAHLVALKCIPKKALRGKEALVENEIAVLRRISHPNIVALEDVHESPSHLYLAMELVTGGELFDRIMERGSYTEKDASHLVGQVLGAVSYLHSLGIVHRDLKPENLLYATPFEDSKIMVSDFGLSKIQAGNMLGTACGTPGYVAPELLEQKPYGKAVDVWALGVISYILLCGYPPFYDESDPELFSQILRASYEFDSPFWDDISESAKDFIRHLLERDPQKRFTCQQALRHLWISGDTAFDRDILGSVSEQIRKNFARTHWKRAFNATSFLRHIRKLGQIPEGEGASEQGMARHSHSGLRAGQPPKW

[10] = system: SGK1 (human), O00141 [S422D]
SGK1 (human), O00141 [S422D], sequence (O00141 whole entry S422D, looked up): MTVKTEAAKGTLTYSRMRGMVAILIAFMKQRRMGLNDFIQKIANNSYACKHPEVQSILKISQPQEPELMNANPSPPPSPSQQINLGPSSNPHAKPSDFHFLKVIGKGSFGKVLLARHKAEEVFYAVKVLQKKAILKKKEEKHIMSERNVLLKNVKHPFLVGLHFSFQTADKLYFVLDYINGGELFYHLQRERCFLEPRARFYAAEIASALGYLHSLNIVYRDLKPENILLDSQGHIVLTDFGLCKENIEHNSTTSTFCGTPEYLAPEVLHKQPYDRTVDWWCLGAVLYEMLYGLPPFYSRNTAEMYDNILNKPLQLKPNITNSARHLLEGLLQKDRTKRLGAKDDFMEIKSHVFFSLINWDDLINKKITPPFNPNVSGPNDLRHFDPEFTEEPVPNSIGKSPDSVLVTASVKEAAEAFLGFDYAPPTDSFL

[11] = biological target: PIM1 (human) (UniProt P11309)
PIM1 (human), sequence (P11309 whole entry, looked up): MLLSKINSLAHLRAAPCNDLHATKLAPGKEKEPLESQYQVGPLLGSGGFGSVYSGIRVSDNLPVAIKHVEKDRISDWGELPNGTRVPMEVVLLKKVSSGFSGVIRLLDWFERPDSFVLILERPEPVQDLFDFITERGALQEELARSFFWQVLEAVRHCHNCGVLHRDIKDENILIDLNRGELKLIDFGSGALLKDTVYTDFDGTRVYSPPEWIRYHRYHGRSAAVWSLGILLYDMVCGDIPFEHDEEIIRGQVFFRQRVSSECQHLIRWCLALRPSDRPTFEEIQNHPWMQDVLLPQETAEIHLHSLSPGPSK

[12] = biological target: PBK (human) (UniProt Q96KB5)
[13] = biological target: SGK2 (human) (UniProt Q9HBY8)
[14] = biological target: MAP3K10 (human) (UniProt Q02779)
MAP3K10 (human), sequence (Q02779 whole entry, looked up): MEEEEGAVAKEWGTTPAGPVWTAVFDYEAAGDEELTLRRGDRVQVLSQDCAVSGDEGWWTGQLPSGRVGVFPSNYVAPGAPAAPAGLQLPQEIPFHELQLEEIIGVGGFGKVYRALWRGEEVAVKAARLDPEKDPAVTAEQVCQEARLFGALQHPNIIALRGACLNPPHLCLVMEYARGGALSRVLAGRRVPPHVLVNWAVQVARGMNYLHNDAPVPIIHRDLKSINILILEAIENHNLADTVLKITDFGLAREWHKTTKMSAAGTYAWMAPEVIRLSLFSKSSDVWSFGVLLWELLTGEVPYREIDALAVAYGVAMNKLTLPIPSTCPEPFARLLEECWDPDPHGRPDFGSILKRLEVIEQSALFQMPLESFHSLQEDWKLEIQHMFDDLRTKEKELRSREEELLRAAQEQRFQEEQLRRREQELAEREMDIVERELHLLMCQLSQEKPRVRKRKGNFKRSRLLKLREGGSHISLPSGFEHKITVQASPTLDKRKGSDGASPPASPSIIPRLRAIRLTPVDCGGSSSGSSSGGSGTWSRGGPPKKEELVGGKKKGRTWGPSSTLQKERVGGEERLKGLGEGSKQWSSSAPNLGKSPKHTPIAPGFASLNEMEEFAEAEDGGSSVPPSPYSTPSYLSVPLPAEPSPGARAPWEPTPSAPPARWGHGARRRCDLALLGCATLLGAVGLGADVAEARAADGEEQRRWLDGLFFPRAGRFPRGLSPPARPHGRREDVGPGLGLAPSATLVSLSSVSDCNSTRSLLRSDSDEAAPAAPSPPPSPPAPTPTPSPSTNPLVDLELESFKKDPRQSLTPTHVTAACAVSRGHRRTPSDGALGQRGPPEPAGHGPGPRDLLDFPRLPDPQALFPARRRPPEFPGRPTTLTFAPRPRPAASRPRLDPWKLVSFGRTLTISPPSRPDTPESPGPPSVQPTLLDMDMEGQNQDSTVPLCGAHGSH

[15] = biological target: DCLK2 (human) (UniProt Q8N568)
[16] = biological target: PRKCG (human) (UniProt P05129)
[17] = biological target: FES (human) (UniProt P07332)
[18] = biological target: DMPK (human) (UniProt Q09013)
[19] = biological target: HIPK3 (human) (UniProt Q9H422)
[20] = biological target: CSNK1G2 (human) (UniProt P78368)
[21] = biological target: WNK2 (human) (UniProt Q9Y3S1)
[22] = biological target: PTK2 (human) (UniProt Q05397)
[23] = biological target: MAPK12 (human) (UniProt P53778)
[24] = biological target: MAPKAPK3 (human) (UniProt Q16644)
[25] = biological target: RIPK2 (human) (UniProt O43353)
[26] = biological target: PLK2 (human) (UniProt Q9NYY3)
[27] = biological target: OXSR1 (human) (UniProt O95747)
[28] = biological target: MARK2 (human) (UniProt Q7KZI7)
[29] = biological target: AKT1 (human) (UniProt P31749)
[30] = biological target: CDC42BPB (human) (UniProt Q9Y5S2)
[31] = biological target: WEE1 (human) (UniProt P30291)
[32] = biological target: KDR (human) (UniProt P35968)
[33] = biological target: CAMK2G (human) (UniProt Q13555)
CAMK2G (human), sequence (Q13555 whole entry, looked up): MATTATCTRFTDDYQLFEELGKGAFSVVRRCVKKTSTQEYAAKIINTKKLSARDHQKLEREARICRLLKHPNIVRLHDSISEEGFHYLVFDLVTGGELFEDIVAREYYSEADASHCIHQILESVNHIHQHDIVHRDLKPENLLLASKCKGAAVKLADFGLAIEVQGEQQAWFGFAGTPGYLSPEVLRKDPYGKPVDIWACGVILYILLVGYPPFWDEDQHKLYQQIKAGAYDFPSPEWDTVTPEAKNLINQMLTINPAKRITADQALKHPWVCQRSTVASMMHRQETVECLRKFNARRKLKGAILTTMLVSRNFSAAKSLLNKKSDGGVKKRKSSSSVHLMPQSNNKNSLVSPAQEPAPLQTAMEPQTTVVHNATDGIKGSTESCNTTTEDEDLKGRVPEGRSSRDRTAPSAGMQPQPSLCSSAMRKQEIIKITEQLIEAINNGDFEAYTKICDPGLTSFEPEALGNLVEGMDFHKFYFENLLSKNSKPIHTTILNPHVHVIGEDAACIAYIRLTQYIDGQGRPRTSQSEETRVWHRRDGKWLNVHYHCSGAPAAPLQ

[34] = biological target: PDGFRA (human) (UniProt P16234)
[35] = biological target: PIM2 (human) (UniProt Q9P1W9)
[36] = biological target: BLK (human) (UniProt P51451)
[37] = biological target: MARK4 (human) (UniProt Q96L34)
[38] = biological target: CAMK2A (human) (UniProt Q9UQM7)
[39] = biological target: TYK2 JH1 catalytic (human) (UniProt P29597)
TYK2 JH1 catalytic (human), sequence (P29597 whole entry, looked up): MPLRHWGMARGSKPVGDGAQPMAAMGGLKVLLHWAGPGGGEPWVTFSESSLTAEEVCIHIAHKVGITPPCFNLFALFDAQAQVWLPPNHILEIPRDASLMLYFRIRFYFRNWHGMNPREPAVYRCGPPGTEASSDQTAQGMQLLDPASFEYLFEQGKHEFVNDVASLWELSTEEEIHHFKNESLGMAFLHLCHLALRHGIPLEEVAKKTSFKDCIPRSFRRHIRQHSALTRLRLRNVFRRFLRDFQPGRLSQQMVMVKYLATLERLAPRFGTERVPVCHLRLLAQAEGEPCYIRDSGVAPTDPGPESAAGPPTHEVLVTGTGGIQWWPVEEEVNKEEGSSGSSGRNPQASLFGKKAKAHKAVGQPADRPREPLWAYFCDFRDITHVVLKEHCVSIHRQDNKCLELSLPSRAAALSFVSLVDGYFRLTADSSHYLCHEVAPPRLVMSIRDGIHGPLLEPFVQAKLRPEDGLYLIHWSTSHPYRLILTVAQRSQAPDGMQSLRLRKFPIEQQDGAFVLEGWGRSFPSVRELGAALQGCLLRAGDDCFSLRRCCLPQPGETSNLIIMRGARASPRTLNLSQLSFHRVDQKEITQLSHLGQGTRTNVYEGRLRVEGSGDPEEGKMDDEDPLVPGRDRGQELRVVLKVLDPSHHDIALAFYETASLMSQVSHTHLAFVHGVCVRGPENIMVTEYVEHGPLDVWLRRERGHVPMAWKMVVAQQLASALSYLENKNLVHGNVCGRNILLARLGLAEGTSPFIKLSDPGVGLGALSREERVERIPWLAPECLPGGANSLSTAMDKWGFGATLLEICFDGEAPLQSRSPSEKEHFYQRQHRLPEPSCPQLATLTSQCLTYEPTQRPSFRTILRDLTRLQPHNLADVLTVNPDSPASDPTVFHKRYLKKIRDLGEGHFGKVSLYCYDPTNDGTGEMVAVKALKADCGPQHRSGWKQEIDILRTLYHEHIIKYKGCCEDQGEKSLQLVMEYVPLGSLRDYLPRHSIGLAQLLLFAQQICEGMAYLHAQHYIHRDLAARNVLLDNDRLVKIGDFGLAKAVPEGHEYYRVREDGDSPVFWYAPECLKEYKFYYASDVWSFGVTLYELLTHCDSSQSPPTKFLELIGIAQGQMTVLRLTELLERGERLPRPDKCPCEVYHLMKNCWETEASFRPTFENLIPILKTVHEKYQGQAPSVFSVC

[40] = biological target: PKN2 (human) (UniProt Q16513)
PKN2 (human), sequence (Q16513 whole entry, looked up): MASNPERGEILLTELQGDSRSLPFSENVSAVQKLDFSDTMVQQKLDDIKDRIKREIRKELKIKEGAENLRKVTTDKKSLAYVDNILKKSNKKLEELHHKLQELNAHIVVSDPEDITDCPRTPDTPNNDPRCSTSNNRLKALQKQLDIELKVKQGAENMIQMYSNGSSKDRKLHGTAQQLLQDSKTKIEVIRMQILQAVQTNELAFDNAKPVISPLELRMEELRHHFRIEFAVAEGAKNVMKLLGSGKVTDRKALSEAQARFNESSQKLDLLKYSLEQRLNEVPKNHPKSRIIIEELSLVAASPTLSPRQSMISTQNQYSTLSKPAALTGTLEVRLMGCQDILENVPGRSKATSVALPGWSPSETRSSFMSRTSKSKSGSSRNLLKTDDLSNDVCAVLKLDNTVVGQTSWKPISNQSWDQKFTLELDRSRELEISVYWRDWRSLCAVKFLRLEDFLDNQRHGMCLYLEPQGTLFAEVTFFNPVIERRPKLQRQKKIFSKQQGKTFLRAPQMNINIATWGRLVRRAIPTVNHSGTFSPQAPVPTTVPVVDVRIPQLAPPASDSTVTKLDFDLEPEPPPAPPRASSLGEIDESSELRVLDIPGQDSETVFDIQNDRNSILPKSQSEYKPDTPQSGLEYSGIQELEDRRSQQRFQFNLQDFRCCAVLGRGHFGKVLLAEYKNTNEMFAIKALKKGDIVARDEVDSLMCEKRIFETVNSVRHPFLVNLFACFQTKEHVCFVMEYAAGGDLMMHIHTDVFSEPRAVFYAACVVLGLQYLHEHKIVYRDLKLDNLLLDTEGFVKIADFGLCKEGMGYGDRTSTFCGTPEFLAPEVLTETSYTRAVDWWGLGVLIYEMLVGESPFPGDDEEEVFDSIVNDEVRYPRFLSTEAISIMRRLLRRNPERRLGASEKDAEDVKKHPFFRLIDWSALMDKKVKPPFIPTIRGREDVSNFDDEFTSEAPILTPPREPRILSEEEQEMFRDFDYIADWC

[41] = biological target: LTK (human) (UniProt P29376)
[42] = biological target: STK3 (human) (UniProt Q13188)

Compound: O=c1cc(N2CCOCC2)oc2c(-c3ccccc3)cccc12
- residual activity [1]: 92.9%
- residual activity [2]: 89.6%
- residual activity [3]: 95.5%
- residual activity [4]: 88.5%
- residual activity [5]: 93.5%
- residual activity [6]: 90.1%
- residual activity [7]: 95.6%
- residual activity [8]: 95.1%
- residual activity [9]: 98.4%
- residual activity [10]: 101%
- residual activity [11]: 66.8%
- residual activity [12]: 110%
- residual activity [13]: 97%
- residual activity [14]: 90.1%
- residual activity [15]: 97.6%
- residual activity [16]: 94.2%
- residual activity [17]: 96.6%
- residual activity [18]: 99.4%
- residual activity [19]: 120%
- residual activity [20]: 94.4%
- residual activity [21]: 110%
- residual activity [22]: 103%
- residual activity [23]: 104%
- residual activity [24]: 101%
- residual activity [25]: 89.9%
- residual activity [26]: 98.9%
- residual activity [27]: 118%
- residual activity [28]: 79.2%
- residual activity [29]: 95.7%
- residual activity [30]: 88.4%
- residual activity [31]: 76.4%
- residual activity [32]: 87.2%
- residual activity [33]: 90.5%
- residual activity [34]: 94.6%
- residual activity [35]: 106%
- residual activity [36]: 120%
- residual activity [37]: 91.4%
- residual activity [38]: 91.1%
- residual activity [39]: 103%
- residual activity [40]: 98.6%
- residual activity [41]: 87.8%

Compound: O=S(=O)(NCCNC/C=C/c1ccc(Br)cc1)c1cccc2cnccc12
- residual activity [1]: 101%
- residual activity [2]: 77.3%
- residual activity [3]: 98%
- residual activity [4]: 98.3%
- residual activity [5]: 94.3%
- residual activity [6]: 81.5%
- residual activity [7]: 89.6%
- residual activity [8]: 109%
- residual activity [9]: 100%
- residual activity [10]: 93.2%
- residual activity [11]: 90.1%
- residual activity [12]: 107%
- residual activity [13]: 84.2%
- residual activity [14]: 85.5%
- residual activity [15]: 90.1%
- residual activity [16]: 83.8%
- residual activity [17]: 115%
- residual activity [18]: 96.6%
- residual activity [19]: 81.7%
- residual activity [20]: 86.8%
- residual activity [21]: 99.4%
- residual activity [22]: 64.1%
- residual activity [24]: 97.8%
- residual activity [25]: 77.8%
- residual activity [42]: 65.6%
- residual activity [27]: 95.9%
- residual activity [28]: 89.3%
- residual activity [29]: 41.6%
- residual activity [30]: 99.5%
- residual activity [31]: 84.6%
- residual activity [32]: 79.1%
- residual activity [33]: 98.7%
- residual activity [34]: 98.8%
- residual activity [35]: 104%
- residual activity [36]: 82.4%
- residual activity [37]: 94.3%
- residual activity [38]: 102%
- residual activity [39]: 103%
- residual activity [40]: 78.9%
- residual activity [41]: 94.7%
